US7452896B2, “Pyrimidine-sulfamides and their use as endothelian receptor antagonist” (Actelion Pharmaceuticals Ltd., priority 2002, dated 2008)

Legend:
[1] = biological target: T1, human recombinant ETA receptors (Homo sapiens, UniProt P25101); experiment: Inhibition of [125I]ET-1 binding to membranes of CHO cells expressing human recombinant ETA receptors
T1 construct: expressed in transfected cells; host or cells: CHO cells (microsomal membranes)
T1 sequence (P25101 21-427): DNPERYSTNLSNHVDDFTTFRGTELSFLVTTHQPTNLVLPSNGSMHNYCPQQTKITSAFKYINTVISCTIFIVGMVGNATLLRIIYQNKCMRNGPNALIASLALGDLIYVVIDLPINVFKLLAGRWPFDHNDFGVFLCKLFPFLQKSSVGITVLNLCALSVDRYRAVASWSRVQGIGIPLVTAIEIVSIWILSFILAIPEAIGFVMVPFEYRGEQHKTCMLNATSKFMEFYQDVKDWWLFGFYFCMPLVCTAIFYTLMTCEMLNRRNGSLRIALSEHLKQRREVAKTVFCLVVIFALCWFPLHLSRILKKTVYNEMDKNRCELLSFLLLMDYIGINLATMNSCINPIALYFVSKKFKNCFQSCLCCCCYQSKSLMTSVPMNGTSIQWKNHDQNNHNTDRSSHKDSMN
Protocol: (§1) 1) Inhibition of Endothelin Binding to Membranes from CHO Cells Carrying Human ET Receptors:
(§2) For competition binding studies, membranes of CHO cells expressing human recombinant ETA or ETB receptors were used. Microsomal membranes from recombinant CHO cells were prepared and the binding assay made as previously described (Breu V., et al, FEBS Lett 1993; 334:210).
(§3) The assay was performed in 200 uL 50 mM Tris/HCl buffer, pH 7.4, including 25 mM MnCl2, 1 mM EDTA and 0.5% (w/v) BSA in polypropylene microtiter plates. […] After 2 h, the membranes were filtered on filterplates containing GF/C filters (Unifilterplates from Canberra Packard S.A. Zürich, Switzerland). To each well, 50 uL of scintillation cocktail was added (MicroScint 20, Canberra Packard S.A. Zürich, Switzerland) and the filter plates counted in a microplate counter (TopCount, Canberra Packard S.A. Zürich, Switzerland).
(§4) All the test compounds were dissolved, diluted and added in DMSO.

[2] = biological target: T2, human recombinant ETB receptors (Homo sapiens, UniProt P24530); experiment: Inhibition of [125I]ET-1 binding to membranes of CHO cells expressing human recombinant ETB receptors
T2 construct: expressed in transfected cells; host or cells: CHO cells (microsomal membranes)
T2 sequence (P24530 27-442): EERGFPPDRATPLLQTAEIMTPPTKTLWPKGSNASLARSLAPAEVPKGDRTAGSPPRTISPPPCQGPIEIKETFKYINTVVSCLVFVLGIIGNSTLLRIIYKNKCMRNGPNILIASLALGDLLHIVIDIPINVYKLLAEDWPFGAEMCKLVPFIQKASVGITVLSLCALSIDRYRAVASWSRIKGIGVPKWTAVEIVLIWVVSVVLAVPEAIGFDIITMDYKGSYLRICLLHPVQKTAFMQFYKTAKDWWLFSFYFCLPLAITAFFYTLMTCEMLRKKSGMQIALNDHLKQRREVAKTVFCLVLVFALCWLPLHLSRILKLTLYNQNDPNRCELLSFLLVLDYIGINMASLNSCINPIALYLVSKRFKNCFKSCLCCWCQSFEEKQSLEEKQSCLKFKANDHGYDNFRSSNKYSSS
Protocol: as §1, §2, §3, §4

[3] = biological target: T3, ETA receptors (rat aortic rings) (Rattus norvegicus, UniProt P26684); experiment: Inhibition of endothelin-1-induced contraction on isolated rat aortic rings; conditions: read-out: pA2 value Aorta (converted)
T3 construct: The thoracic aorta or trachea were excised, dissected and cut in 3-5 mm rings; from tissue; host or cells: thoracic aorta rings of adult Wistar rats, endothelium removed
T3 sequence (P26684 21-426): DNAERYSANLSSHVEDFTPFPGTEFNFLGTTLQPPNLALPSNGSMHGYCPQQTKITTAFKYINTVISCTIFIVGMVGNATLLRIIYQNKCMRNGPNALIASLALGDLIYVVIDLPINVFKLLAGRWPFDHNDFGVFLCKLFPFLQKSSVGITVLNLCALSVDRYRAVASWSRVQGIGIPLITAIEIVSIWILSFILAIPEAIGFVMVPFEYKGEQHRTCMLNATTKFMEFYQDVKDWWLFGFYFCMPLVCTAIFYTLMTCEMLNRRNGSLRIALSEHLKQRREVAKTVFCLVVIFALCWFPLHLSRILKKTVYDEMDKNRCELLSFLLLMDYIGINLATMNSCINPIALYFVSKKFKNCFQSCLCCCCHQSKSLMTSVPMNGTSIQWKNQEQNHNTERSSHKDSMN
Protocol: (§5) 2) Inhibition of Endothelin-Induced Contractions on Isolated Rat Aortic Rings (ETA Receptors) and Rat Tracheal Rings (ETB Receptors):
(§6) The functional inhibitory potency of the endothelin antagonists was assessed by their inhibition of the contraction induced by endothelin-1 on rat aortic rings (ETA receptors) and of the contraction induced by sarafotoxin S6c on rat tracheal rings (ETB receptors). Adult Wistar rats were anesthetized and exsanguinated. The thoracic aorta or trachea were excised, dissected and cut in 3-5 mm rings. The endothelium/epithelium was removed by gentle rubbing of the intimal surface. Each ring was suspended in a 10 ml isolated organ bath filled with Krebs-Henseleit solution (in mM; NaCl 115, KCl 4.7, MgSO4 1.2, KH2PO4 1.5, NaHCO3 25, CaCl2 2.5, glucose 10) kept at 37° C. and gassed with 95% O2 and 5% CO2. The rings were connected to force transducers and isometric tension was recorded (EMKA Technologies SA, Paris, France). The rings were stretched to a resting tension of 3 g (aorta) or 2 g (trachea). […] The functional inhibitory potency of the test compound was assessed by calculating the concentration ratio, i.e. the shift to the right of the EC50 induced by different concentrations of test compound. […]

[4] = biological target: T4, ETB receptors (rat tracheal rings) (Rattus norvegicus, UniProt P21451); experiment: Inhibition of sarafotoxin S6c-induced contraction on isolated rat tracheal rings; conditions: contraction induced by sarafotoxin S6c, read-out: pA2 value Trachea (converted)
T4 construct: The thoracic aorta or trachea were excised, dissected and cut in 3-5 mm rings; from tissue; host or cells: tracheal rings of adult Wistar rats, epithelium removed
T4 sequence (P21451 27-442): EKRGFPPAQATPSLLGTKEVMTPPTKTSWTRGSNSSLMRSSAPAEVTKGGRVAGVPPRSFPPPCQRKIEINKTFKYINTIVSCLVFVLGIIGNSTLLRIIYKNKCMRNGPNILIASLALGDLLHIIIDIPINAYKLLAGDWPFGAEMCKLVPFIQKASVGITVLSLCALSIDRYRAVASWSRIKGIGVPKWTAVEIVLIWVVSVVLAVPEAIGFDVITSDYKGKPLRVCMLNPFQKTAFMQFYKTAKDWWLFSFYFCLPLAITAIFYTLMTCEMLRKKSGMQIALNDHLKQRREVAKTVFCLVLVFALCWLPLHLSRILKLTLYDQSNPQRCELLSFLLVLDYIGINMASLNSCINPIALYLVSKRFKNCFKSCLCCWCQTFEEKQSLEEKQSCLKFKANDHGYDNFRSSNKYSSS
Protocol: as §5, §6

| SMILES | IC50 [1] [nM] | IC50 [2] [nM] | Kb [3] [nM] | Kb [4] [nM] |
| --- | --- | --- | --- | --- |
| COCCNS(=O)(=O)Nc1ncnc(OCCOc2ncc(Br)cn2)c1Oc1cc(OC)ccc1Cl [Example 1, 2-methoxy-ethanesulfamic acid [6-[2-(5-bromo-pyrimidin-2-yloxy)-ethoxy]-5-(2-chloro-5-methoxy-phenoxy)-pyrimidin-4-yl]-amide] | 0.28 | 174 | 126 | 5130 |
| COCCNS(=O)(=O)Nc1ncnc(OCCOc2ncc(Br)cn2)c1-c1ccc(Br)cc1 [Example 2, 2-methoxy-ethanesulfamic acid {5-(4-bromophenyl)-6-[2-(5-bromopyrimidin-2-yloxy)-ethoxy]-pyrimidin-4-yl}-amide] | 0.22 | 222 | 3.31 | > 10000 |
| COCCNS(=O)(=O)Nc1ncnc(OCCOc2ncc(SC)cn2)c1-c1ccc(Br)cc1 [Example 3, 2-Methoxy-ethanesulfamic acid {5-(4-bromophenyl)-6-[2-(5-methylsulfanyl-pyrimidin-2-yloxy)-ethoxy]-pyrimidin-4-yl}-amide] | 0.2 | 120 |  |  |
| COCCNS(=O)(=O)Nc1ncnc(OCCOc2ncc(OC)cn2)c1-c1ccc(Br)cc1 [Example 4, 2-Methoxy-ethanesulfamic acid {5-(4-bromophenyl)-6-[2-(5-methoxypyrimidin-2-yloxy)-ethoxy]-pyrimidin-4-yl}-amide] | 1.27 | 560 |  |  |
